Results reported in patent US8772512B2, “Crystallisation process for 1-(β-D-glucopyranosyl)-4-methyl-3-[5-(4-fluorophenyl)-2-thienylmethyl] benzene” (Janssen Pharmaceutica NV, priority 2009, dated 2014).

Key:
[1] = Particle size distribution by laser diffraction (Malvern Mastersizer 2000, wet dispersion); format: physicochemical; conditions: Fraunhofer optical model, hemihydrate; for particle size distribution D10: d10 cumulative undersize by volume, dispersed in 1% (w/v) polysorbate 20 in water; for particle size distribution D50: d50 cumulative undersize by volume; for particle size distribution D90: d90 cumulative undersize by volume
Protocol: Particle size of original compound (I) and crystallised compound (I) according to the procedure of Example 1 have been determined with laser diffraction (LD). For this purpose, a Malvern Mastersizer 2000 laser diffractometer (Malvern, U.K.) has been used, which was equipped with a Hydro 2000S wet dispersion module. Prior to analysis, an amount of ca. 200 mg of the product was dispersed in 1% (w/v) polysorbate 20 in water by means of vigorous shaking for 30 seconds. A representative portion of this dispersion was than added to the reservoir of the wet dispersion module, which for this purpose was filled with water. The liquid medium was circulated via the measurement cell of the instrument, to allow measurement of the product specific scattering pattern. Based on the scattering intensities as measured under different angles relative to the incoming collimated laser beam, for compound (I) the particle size distribution (PSD) by volume was calculated based on the Fraunhofer optical model. For the PSD, the d10, d50 and d90 cumulative undersize were reported as the relevant statistical descriptors.

[2] = Bulk and tap density (25 g in 100-ml graduated cylinder; 500 taps); format: physicochemical; conditions: for Bulk density: 25 g, volume in 100-ml graduated cylinder; for Bulk density / Tap density: hemihydrate; for Tap density: after 500 taps
Protocol: The bulk and tap densities of the crystallised 1-(β-D-glucopyranosyl)-4-methyl-3-[5-(4-fluorophenyl)-2-thienylmethyl] benzene hemihydrate were measured. The bulk density of 25 g of compound (I) was measured by recording its volume in a 100-ml graduated cylinder. Tap density volume was then measured after 500 taps.

particle size distribution D10 [1]	particle size distribution D50 [1]	particle size distribution D90 [1]	Bulk density [2]	Tap density [2]	bulk density higher than for original compound (I) ([2]; crystallised according to Example 1 versus original compound (I))	SMILES
20 μm	49 μm	102 μm	0.35 g/mL	0.54 g/mL	20%	Cc1ccc([C@@H]2O[C@H](CO)[C@@H](O)[C@H](O)[C@H]2O)cc1Cc1ccc(-c2ccc(F)cc2)s1 [crystallised compound (I), 1-(β-D-glucopyranosyl)-4-methyl-3-[5-(4-fluorophenyl)-2-thienylmethyl] benzene hemihydrate]
14 μm	43 μm	116 μm	0.28 g/mL	0.48 g/mL	–	Cc1ccc([C@@H]2O[C@H](CO)[C@@H](O)[C@H](O)[C@H]2O)cc1Cc1ccc(-c2ccc(F)cc2)s1 [original compound (I), 1-(β-D-glucopyranosyl)-4-methyl-3-[5-(4-fluorophenyl)-2-thienylmethyl] benzene hemihydrate]
